Converted amounts (≈) assume the structure as drawn. Counter-ions that a name gives are not always drawn. Like-named read-outs stand apart in the source and are kept apart here.
How the values were obtained:
Type in all cases: physicochemical
[1] = Equilibrium solubility in various solvents (HPLC); details: 22° C. ± 2° C.; for solubility: solubility of free base
[2] = XRPD of excess solids isolated from equilibrated solubility samples (form conversion); details: for Form conversion in aqueous media: pH>4
Method: Approximately 20-100 mg of powder was loaded onto a low background sample holder. Samples were analyzed on a Rigaku Miniflex (scanning configuration) and scanned from 5-60°, 2-theta at a rate of 1°2θ/minute with a sampling rate of 0.02 seconds. Patterns were analyzed using Jade software version 7.5, provided by Materials Data Inc.
Excess solids were isolated from equilibrated samples and analyzed by XRPD. […] As discussed below (XRPD section), this phase was identified as the crystalline besifloxacin free base.

[3] = Moisture sorption analysis (VTI moisture sorption balance); details: 25° C.; for Hygroscopicity / moisture sorption behaviour: 10% to 90% RH
Method: Moisture uptake and loss was monitored as a function of relative humidity using a VTI, moisture sorption balance. A 30-40 mg sample was loaded into a tared glass sample holder. The initial weight of the sample was accurately recorded. The sample was then dried under a steady stream of nitrogen for 2 hours at 40° C. After initial drying, the sample mass was equilibrated with dry nitrogen at 25° C. and the sample was exposed to progressive stepwise increases in humidity under controlled conditions. The sample was equilibrated for two hours at each new relative humidity. The moisture sorption behavior was monitored at 10% to 90% RH in 10% RH intervals and desorption was monitored from 90% to 10% RH. The % moisture gain/loss was recorded vs. the % RH.

[4] = pH-dependence of solubility in distilled water (HPLC); details: for solubility: distilled water, aqueous buffer, thermodynamic from solid
Method: (§1) A reversed phase gradient HPLC method was used for the analysis of besifloxacin solubility samples. The conditions are listed below:
(§2) The solubility of besifloxacin HCl, lot 050956330, was determined in distilled water as a function of pH by adjusting the pH with 1 N NaOH. Suspensions of the drug substance (about 50-150 mg in 10 mL distilled water) were equilibrated for 72-96 hours using a Burrell shaker. Laboratory temperature was 22±2° C. The pH of the suspensions was measured in the presence of excess solid prior to sampling. The samples were centrifuged in an Enprotech ISS-I13 centrifuge at 10,000 RPM for 15 minutes or filtered through 0.45[…] or PVDF filters. When samples were filtered, a volume of filtrate was discarded to allow saturation of filters. The supernatant or the filtrate was diluted as needed using the HPLC diluent prior to analysis. Sample concentration was monitored at varying time intervals to ensure complete equilibration. Also, sample concentration was reported as besifloxacin free base concentration rather than HCl salt.

[5] = Equilibrium solubility in various solvents (HPLC); details: Water, 22° C. ± 2° C.; for solubility: saturated solution pH 3.6 (HCl salt), 8.1 (free base), solubility of free base
Method: as §1
The solubility of besifloxacin HCl was evaluated in several organic solvents. An excess of drug substance was equilibrated with 10 mL of each solvent for 24-48 hours at room temperature (24±3° C.) using either a small magnetic stirrer or a Burrell Wrist Action shaker. Samples were inspected visually, and if needed, more drug substance was added until excess solid persisted after stirring. The samples were then filtered through 0.45 μm Nylon or PVDF filters or centrifuged at 10,000 RPM for 15 minutes. The filtrate or the supernatant was diluted as needed using the HPLC diluent and analyzed by HPLC. When solubility was greater than 100 mg/mL, no attempt was made to determine the equilibrium solubility and the compound was described as “freely soluble” as per the USP definition.
as §2

[6] = pKa and intrinsic solubility from fit of pH-solubility profile to Henderson-Hasselbach equation; details: for solubility: aqueous buffer; for pKa: estimated from fit of pH-solubility profile
Source text: To determine pKas that were consistent with observed solubility behavior, the pH dependent solubility was fitted to the following expression: S=So*(10^pKa1-pH+10^pH-pKa2+1) where S=solubility So=intrinsic solubility (total of zwitterionic and neutral species) pKa1=dissociation constant for the carboxylic acid moiety pKa2=dissociation constant for the primary ammonium ion moiety

[7] = Acetonitrile, listed as Free base
[8] = Isopropanol, listed as Free base

## N[C@@H]1CCCCN(c2c(F)cc3c(=O)c(C(=O)O)cn(C4CC4)c3c2Cl)C1 [besifloxacin HCl salt]
[1]; Acetonitrile
  USP def: Insoluble
  solubility: 12 µg/mL
[1]; Acetonitrile, listed as Besifloxacin HCL salt
  USP def: insoluble
[1]; Acetonitrile, listed as Besifloxacin HCl salt
  USP def: insoluble
[1]; Ethanol
  USP def: slightly soluble
  solubility: 1122 µg/mL
[1]; Ethanol, listed as Besifloxacin HCL salt
  USP def: slightly soluble
[1]; Ethanol, listed as Besifloxacin HCl salt
  USP def: slightly soluble
[1]; Isopropanol
  USP def: Insoluble
  solubility: 89 µg/mL
[1]; Isopropanol, listed as Besifloxacin HCL salt
  USP def: insoluble
[1]; Isopropanol, listed as Besifloxacin HCl salt
  USP def: insoluble
[1]; Methanol
  USP def: slightly soluble
  solubility: 9898 µg/mL
[1]; Methanol, listed as Besifloxacin HCL salt
  USP def: slightly soluble
[1]; Methanol, listed as Besifloxacin HCl salt
  USP def: slightly soluble
[1]; Water
  USP def: sparingly
[2]
  Form conversion in aqueous media: dissolve and precipitate in a different crystalline form
[2]; listed as besifloxacin HCl
  Form conversion in aqueous media: convert in aqueous media (pH>4) to a new crystalline phase
[2]; aqueous pH solubility samples, pHs>3.5-4.0
  Form conversion of excess solid: converted to a different crystalline phase
[2]; equilibrated in organic solvents
  Form conversion of excess solid: no form conversions were observed
[3]; listed as Besifloxacin HCl
  Hygroscopicity / moisture sorption behaviour: not hygroscopic
[4]; pH 3.54, water, 22° C. ± 2° C., reported as free base concentration, read-out: Solubility
  solubility: 10600 µg/mL
[4]; pH 3.58, water, 22° C. ± 2° C., reported as free base concentration, read-out: Solubility
  solubility: 10200 µg/mL
[4]; pH 3.72, water, 22° C. ± 2° C., reported as free base concentration, read-out: Solubility
  solubility: 10300 µg/mL
[4]; pH 3.95, water, 22° C. ± 2° C., reported as free base concentration, read-out: Solubility
  solubility: 4180 µg/mL
[4]; pH 4.58, water, 22° C. ± 2° C., reported as free base concentration, read-out: Solubility
  solubility: 710 µg/mL
[4]; pH 4.87, water, 22° C. ± 2° C., reported as free base concentration, read-out: Solubility
  solubility: 590 µg/mL
[4]; pH 5.15, water, 22° C. ± 2° C., reported as free base concentration, read-out: Solubility
  solubility: 240 µg/mL
[4]; pH 5.17, water, 22° C. ± 2° C., reported as free base concentration, read-out: Solubility
  solubility: 270 µg/mL
[4]; pH 5.43, water, 22° C. ± 2° C., reported as free base concentration, read-out: Solubility
  solubility: 220 µg/mL
[4]; pH 5.95, water, 22° C. ± 2° C., reported as free base concentration, read-out: Solubility
  solubility: 120 µg/mL
[4]; pH 6.31, water, 22° C. ± 2° C., reported as free base concentration, read-out: Solubility
  solubility: 100 µg/mL
[4]; pH 6.45, water, 22° C. ± 2° C., reported as free base concentration, read-out: Solubility
  solubility: 100 µg/mL
[4]; pH 6.49, water, 22° C. ± 2° C., reported as free base concentration, read-out: Solubility
  solubility: 80 µg/mL
[4]; pH 6.72, water, 22° C. ± 2° C., reported as free base concentration, read-out: Solubility
  solubility: 80 µg/mL
[4]; pH 8.14, water, 22° C. ± 2° C., reported as free base concentration, read-out: Solubility
  solubility: 80 µg/mL
[4]; pH 9.11, water, 22° C. ± 2° C., reported as free base concentration, read-out: Solubility
  solubility: 80 µg/mL
[4]; pH 9.59, water, 22° C. ± 2° C., reported as free base concentration, read-out: Solubility
  solubility: 100 µg/mL
[4]; pH 9.63, water, 22° C. ± 2° C., reported as free base concentration, read-out: Solubility
  solubility: 100 µg/mL
[4]; pH 10.37, water, 22° C. ± 2° C., reported as free base concentration, read-out: Solubility
  solubility: 270 µg/mL
[4]; pH 10.85, water, 22° C. ± 2° C., reported as free base concentration, read-out: Solubility
  solubility: 850 µg/mL
[5]; listed as Besifloxacin HCL salt
  USP def: sparingly soluble
[5]; listed as Besifloxacin HCl salt
  USP def: sparingly soluble
[5]
  solubility: 10635 µg/mL

## N[C@@H]1CCCCN(c2c(F)cc3c(=O)c(C(=O)O)cn(C4CC4)c3c2Cl)C1 [besifloxacin free base, (R)-(+)-7-(3-amino-2,3,4,5,6,7-hexahydro-1H-azepin-1-yl)-1-cyclopropyl-8-chloro-6-fluoro-1,4-dihydro-4-oxoquinoline-3-carboxylic acid]
[1]; [7]
  USP def: Insoluble
  solubility: 5 µg/mL (≈ 12.7 µM)
[1]; Ethanol, listed as Free base
  USP def: Insoluble
  solubility: 33 µg/mL (≈ 83.8 µM)
[1]; [8]
  USP def: Insoluble
  solubility: 4 µg/mL (≈ 10.2 µM)
[1]; Methanol, listed as Free base
  USP def: Very slightly
  solubility: 135 µg/mL (≈ 343 µM)
[3]; listed as Besifloxacin free base
  Hygroscopicity / moisture sorption behaviour: sorbed moisture at all RH conditions
[3]; 90% RH
  Moisture sorbed: up to 5 % w/w
[4]; 22 °C, pH 6.5 (product pH), read-out: Solubility in aqueous media
  solubility: ~100 µg/mL (≈ 254 µM)
[5]; listed as Free base
  USP def: Insoluble
  solubility: 79 µg/mL

## N[C@@H]1CCCCN(c2c(F)cc3c(=O)c(C(=O)O)cn(C4CC4)c3c2Cl)C1 [besifloxacin, (R)-(+)-7-(3-amino-2,3,4,5,6,7-hexahydro-1H-azepin-1-yl)-1-cyclopropyl-8-chloro-6-fluoro-1,4-dihydro-4-oxoquinoline-3-carboxylic acid]
[4]; aqueous, pH 5.5-9.0
  Solubility description of the zwitterion: very slightly soluble
[4]; aqueous, pH range 5.5-9.0
  Solubility of the zwitterion: ~100 µg/mL
[4]; 22 °C, aqueous, pH 3, read-out: Maximum solubility as a function of pH
  solubility: ~10000 µg/mL (≈ 25400 µM)
[4]; 22 °C, aqueous, pH range 5.5-9.0, read-out: Solubility of the zwitterion
  solubility: ~100 µg/mL (≈ 254 µM)
[6]; distilled water (pH adjusted with 1 N NaOH), assumed in fit of pH-solubility profile, read-out: Intrinsic solubility
  solubility: 74 µg/mL (≈ 188 µM)
[6]; distilled water, pH adjusted with 1 N NaOH, fit of pH-solubility profile, total of zwitterionic and neutral species, read-out: Intrinsic solubility (So)
  solubility: 74 µg/mL (≈ 188 µM)
[6]; read-out: pKa of the carboxylic acid group (pKa1)
  pKa: 5.65
[6]; read-out: pKa of the primary amine (ammonium) group (pKa2)
  pKa: 9.91

Reference: patent US8481526B2, “Fluoroquinolone carboxylic acid molecular crystals” (Bausch & Lomb Incorporated, priority 2009, dated 2013)
